Measured values reported in ChEMBL document CHEMBL1201862, “PubChem BioAssay data set” (2004).
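Protocol summary: plate cells (96-well), add compound at 5 concentrations, incubate 48 h, interpolate endpoints linearly. GI50 marks 50% less growth.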 Activity calls are given as the source filed them. No stated cut-off is given here; in the data, active = GI50 up to about 1.1 µM and inactive = higher.

Experiments:
Test in all cases: DTP human tumour cell line panel, 48 h
[1] = test system: DLD-1
[2] = test system: M19-MEL
[3] = test system: SNB-78
[4] = test system: HOP-18
[5] = test system: Hs-578T
[6] = test system: MDA-N
[7] = test system: PC-3
[8] = test system: XF498

SMILES	GI50 [1]	GI50 [2]	GI50 [3]	GI50 [4]	GI50 [5]	GI50 [6]	GI50 [7]	GI50 [8]
Cc1ccc(NC(=O)OCC(COc2ccc(Cl)cc2Cl)OC(=O)Nc2ccc(C)cc2)cc1 (stereo unspecified)	> 100 µM (inactive)	> 100 µM (inactive)	> 100 µM (inactive)	69.5 µM (inactive)				
COc1cc(/C=C/C2=NN(c3cccc(S(=O)(=O)O)c3)C3(C2)SCC(=O)N3c2nc3ccccc3s2)cc(OC)c1OC (stereo unspecified)					56.6 µM (inactive)	39.4 µM (inactive)	45.9 µM (inactive)	
COc1ccccc1NC(=O)CC(=O)n1nc(C)c(/N=N/c2ccccc2C(=O)O)c1C	> 100 µM (inactive)	> 100 µM (inactive)	> 100 µM (inactive)					> 100 µM (inactive)
CC(=O)O[C@H]1CCC2[C@@H]3CCC4Cc5nc6c(nc5C[C@]4(C)C3CC[C@@]21C)CC1CC[C@@H]2C(CC[C@@]3(C)C2CC[C@@H]3C(C)CCCC(C)C)[C@@]1(C)C6 (stereo partly specified)					> 100 µM (inactive)	> 100 µM (inactive)	> 100 µM (inactive)	
CCOC(=O)Nn1cnnc1Cc1ccccc1					20 µM (inactive)	> 100 µM (inactive)	> 100 µM (inactive)	
COc1ccc(/C=C2\CCC(CNc3cc(C)on3)C2=O)cc1 (stereo unspecified)					57.9 µM (inactive)	> 100 µM (inactive)	> 100 µM (inactive)	
O=c1c(-c2ccccc2Cl)coc2cc(F)ccc12					28.4 µM (inactive)	3.79 µM (inactive)	> 100 µM (inactive)	
O=C1C2C=CC(n3[nH]c(=O)n(Cc4ccccc4)c3=O)CC2C(=O)N1c1ccc(Br)cc1 (stereo unspecified)	> 100 µM (inactive)	> 100 µM (inactive)	> 100 µM (inactive)	> 100 µM (inactive)				
O=C(O)CCCN/C(=C1\C(=O)C(=O)N(c2ccccc2)C1=O)c1ccccc1					> 100 µM (inactive)	> 100 µM (inactive)	> 100 µM (inactive)	
CCC(C)(C)C1CCC2c3c([nH]c4ccccc34)C3C(=O)N(c4ccc(OC)cc4)C(=O)C3C2C1 (stereo unspecified)						18.7 µM (inactive)	9.79 µM (inactive)	
C=C(C)CCC1C=[N+]([O-])OC(C)(C)C1(C)C (stereo unspecified)					> 100 µM (inactive)	> 100 µM (inactive)		
Cc1ccc(CNc2ccc(Br)cc2)cc1					70.6 µM (inactive)	25.4 µM (inactive)	31.6 µM (inactive)	
CC(=O)C(C(=O)c1ccc(C)cc1)[C@@H]1OC(C)(C)O[C@@H]1[C@H]1COC(C)(C)O1 (stereo partly specified)					3.84 µM (inactive)	7.21 µM (inactive)	8.57 µM (inactive)	
C=CC1(CC[C@]2(c3ccc(OC)c(OC)c3)C=[N+]([O-])O[C@H](O[C@@H]3CCCC[C@H]3C(C)(C)c3ccccc3)C2)OCC(C)(C)CO1						6.11 µM (inactive)	7.23 µM (inactive)	
Cn1c2ccccc2c(=S)c2cc(NC(=O)CCCCC(=O)Nc3ccc4c(c3)c(=S)c3ccccc3n4C)ccc21					> 100 µM (inactive)	> 100 µM (inactive)	> 100 µM (inactive)	
Nc1csc(-c2scc3c2OCCO3)c1N					27.8 µM (inactive)	15.4 µM (inactive)	23 µM (inactive)	
CC(C)(C)CC(C)(C)NCC(O)COc1ccc(C(C)(C)c2ccc(OCC(O)CNC(C)(C)CC(C)(C)C)cc2)cc1 (stereo unspecified)	0.832 µM (active)	1.53 µM (inactive)	1.95 µM (inactive)					1.64 µM (inactive)
CCOC(=O)c1cc(-n2nnc3ccccc32)cn1C					> 10 µM (inactive)	> 10 µM (inactive)	> 10 µM (inactive)	
CCOP(=O)(OCC)/C(C#N)=C/c1cccn1C(C)C						> 100 µM (inactive)	> 100 µM (inactive)	
c1ccc(CN2C3C4N(Cc5ccccc5)C2C2N(Cc5ccccc5)C(C(N2Cc2ccccc2)N4Cc2ccccc2)N3Cc2ccccc2)cc1					> 100 µM (inactive)	> 100 µM (inactive)	> 100 µM (inactive)	
CCOc1ccc(NC(=O)C2=C(C)NC(C)=C(C(=O)Nc3ccc(OCC)cc3)C2c2ccc([N+](=O)[O-])cc2)cc1	25.9 µM (inactive)	26.2 µM (inactive)	34.1 µM (inactive)					25.3 µM (inactive)
Nc1ccccc1.O=C(O)C(C(F)(F)F)C(F)(F)F					> 100 µM (inactive)	> 100 µM (inactive)	> 100 µM (inactive)	
O=c1[nH]nc(Cc2ccccc2)n1/N=C/c1ccccc1O					51.9 µM (inactive)	> 100 µM (inactive)		
CC/C=C/c1cc2cc[nH]c2c2c1C(C)C[C@@H]2C (stereo partly specified)	34.2 µM (inactive)	27.5 µM (inactive)	24.9 µM (inactive)	17.9 µM (inactive)				
CC(=O)OC(C[C@H](C)[C@@H]1CC[C@]2(C)C3=CCC4C(C)(C)C(=O)CC[C@]4(C)C3CCC12C)C1OC1(C)C (stereo partly specified)	29.7 µM (inactive)	31.2 µM (inactive)		> 100 µM (inactive)				18.5 µM (inactive)
C[n+]1c(-c2ccc(/C=N/N=C/c3ccc(-c4cn5ccccc5[n+]4C)cc3)cc2)cn2ccccc21					> 100 µM (inactive)	> 100 µM (inactive)	> 100 µM (inactive)	
COc1cc2cc(C(=O)N3CC(CCl)c4c3cc([N+](=O)[O-])c3ccccc43)[nH]c2c(OC)c1OC (stereo unspecified)					> 45.1 µM (inactive)	> 100 µM (inactive)	10.9 µM (inactive)	
Cc1ccc2c(c1)NC(=O)CC(c1ccccc1)=N2					> 100 µM (inactive)	23.7 µM (inactive)	97.1 µM (inactive)	
